Source: patent US10800789B2, “Antiviral compounds” (Gilead Pharmasset LLC, priority 2012, dated 2020)
Read-outs that look alike come from different tables or passages of the source.

How the values were obtained:
[1] = tested on: stable HCV 1b RLuc replicon cells (dicistronic genotype 1b Con1 replicon); experiment: Renilla luciferase HCV replicon reporter assay, genotype 1b; format: cell-based; conditions: Hepatitis C virus, 72 h, stable 1b Con1 RLuc replicon cells, 72 hours; read-out: 1b
Procedure, shortened: (§1)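 First, 3-fold serial dilutions of compound went onto replicon cells, DMSO serving as no-inhibition control and ITMN-191 at >100×EC50 as positive control. Next came 72 h incubation, lysis and Renilla luciferase measurement. Finally, EC50 was calculated by non-linear regression; replicons covered genotypes 1a H77, 1b Con1, 2a JFH-1 (L31) and J6-NS5A chimera (M31).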

[2] = tested on: stable HCV 1a RLuc replicon cells (dicistronic genotype 1a H77 replicon); experiment: Renilla luciferase HCV replicon reporter assay, genotype 1a; format: cell-based; conditions: Hepatitis C virus, 72 h, stable 1a H77 RLuc replicon cells
Procedure, shortened: as §1

[3] = tested on: stable HCV 2a JFH-1 Rluc replicon cells (L31 present in NS5A); experiment: Renilla luciferase HCV replicon reporter assay, genotype 2a JFH-1; format: cell-based; conditions: Hepatitis C virus
Procedure, shortened: as §1

[4] = tested on: NS5A chimeric genotype 2a JFH-1 replicon with genotype 2a J6 strain NS5A gene (M31 present); experiment: Replicon assay, genotype 2a J6 NS5A chimera; format: cell-based, HCV; conditions: Hepatitis C virus
Procedure, shortened: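 Cells carrying the stable or transiently transfected (Huh-Lunet) dicistronic RLuc replicons received 3-fold serial compound dilutions from 10 mM DMSO stocks. After 72 h, cells were lysed and Renilla luciferase read. DMSO served as the no-inhibition control and ITMN-191 above 100×EC50 as the positive control; EC50 by non-linear regression.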

[5] = tested on: NS5A chimeric genotype 2a JFH-1 replicon with genotype 2b MD2b-1 strain NS5A gene (M31 present); experiment: Replicon assay, genotype 2b NS5A chimera; format: cell-based, HCV; conditions: Hepatitis C virus
Procedure, shortened: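 EC50 was fitted by non-linear regression to Renilla luciferase signal after 72 h of exposure to 3-fold serially diluted compound (10 mM DMSO stocks). Controls were DMSO (none) and ITMN-191 above 100×EC50 (full). Chimeric 2a replicons were used either stable or transiently transfected into Huh-Lunet cells.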

[6] = tested on: NS5A chimeric genotype 1b Con1 replicon with genotype 3a S52 strain NS5A gene; experiment: Replicon assay, genotype 3a NS5A chimera; format: cell-based, HCV; conditions: Hepatitis C virus
[7] = tested on: NS5A chimeric genotype 1b Con1 replicon with genotype 4a ED43 strain NS5A gene; experiment: Replicon assay, genotype 4a NS5A chimera; format: cell-based, HCV; conditions: Hepatitis C virus
[8] = read-out: 2a JFH (nM), genotype 2a JFH-1 replicon (L31 in NS5A), stable cells
[9] = read-out: 2a JFH, stable 2a JFH-1 Rluc replicon cells, L31 in NS5A, activity range
[10] = read-out: 2a J6 (t) (nM), genotype 2a J6 NS5A chimeric replicon (M31), transiently transfected (t) into Huh-Lunet cells
[11] = read-out: 2a J6 (t), transiently transfected (t) into Huh-Lunet cells, activity range
[12] = 2BS, read-out: 2b (s), stably replicating replicon cells (s), activity range
[13] = read-out: 2b (s) (nM), genotype 2b MD2b-1 NS5A chimeric replicon (M31), stably replicating replicon cells (s)
[14] = read-out: 3a (s) (nM), genotype 3a NS5A chimeric replicon, stable replicon cells (s)
[15] = read-out: 3a (s), (s), activity range
[16] = read-out: 4a (s) (nM), genotype 4a NS5A chimeric replicon, stable replicon cells (s)
[17] = read-out: 4a (s), (s), activity range

Row | Compound | EC50 [1] [nM] | EC50 [2] [nM] | EC50 ([2]; activity range) [nM] | EC50 [3, 8] [nM] | EC50 [3, 9] [nM] | EC50 [4, 10] [nM] | EC50 [4, 11] [nM] | EC50 [5, 12] [nM] | EC50 [5, 13] [nM] | EC50 [6, 14] [nM] | EC50 [6, 15] [nM] | EC50 [7, 16] [nM] | EC50 [7, 17] [nM]
1 | COC(=O)N[C@H](C(=O)N1[C@@H](C)CC[C@H]1c1ncc(-c2ccc3c(c2)COc2cc4c(ccc5nc([C@@H]6CC[C@H](C)N6C(=O)[C@@H](NC(=O)OC)[C@H](C)OC)[nH]c54)cc2-3)[nH]1)[C@H](C)OC [GE] | 0.062 | 0.043 | < 0.1 | 0.104 | 0.1 to 0.999 | 0.508 | 0.1 to 0.999 | 0.1 to 0.999 | 0.772 | 0.445 | 0.1 to 0.999 | 0.026 | < 0.1
2 | CC[C@H](C)[C@H](NC(=O)OC)C(=O)N1[C@@H](C)CC[C@H]1c1ncc(-c2ccc3c(c2)COc2cc4c(ccc5nc([C@@H]6CC[C@H](C)N6C(=O)[C@@H](NC(=O)OC)C(C)C)[nH]c54)cc2-3)[nH]1 [GL] | 0.021 | 0.015 | < 0.1 | 0.024 | < 0.1 | 0.364 | 0.1 to 0.999 | 0.1 to 0.999 | 0.577 | 0.054 | < 0.1 | 0.022 | < 0.1
3 | CC[C@H](C)[C@H](NC(=O)OC)C(=O)N1[C@@H](C)CC[C@H]1c1nc2ccc3cc4c(cc3c2[nH]1)OCc1cc(-c2cnc([C@@H]3CC[C@H](C)N3C(=O)[C@@H](NC(=O)OC)C(C)C)[nH]2)ccc1-4 [GM] | 0.016 | 0.012 | < 0.1 | 0.016 | < 0.1 | 0.222 | 0.1 to 0.999 | 0.1 to 0.999 | 0.658 | 0.048 | < 0.1 | 0.015 | < 0.1
4 | COC(=O)N[C@H](C(=O)N1[C@@H](C)CC[C@H]1c1nc2ccc3cc4c(cc3c2[nH]1)OCc1cc(-c2cnc([C@@H]3CC[C@H](C)N3C(=O)[C@@H](NC(=O)OC)[C@@H](C)OC(F)F)[nH]2)ccc1-4)[C@@H](C)OC [GN] | 0.023 | 0.013 | < 0.1 | 0.017 | < 0.1 | 0.033 | < 0.1 | 0.1 to 0.999 | 0.247 | 0.072 | < 0.1 | 0.016 | < 0.1
5 | CC[C@H]1CC[C@@H](c2ncc(-c3ccc4c(c3)COc3cc5c(ccc6nc([C@@H]7C[C@H](C)CN7C(=O)[C@@H](NC(=O)OC)[C@@H](C)OC)[nH]c65)cc3-4)[nH]2)N1C(=O)[C@@H](NC(=O)OC)C(C)C [GO] | 0.028 | 0.021 | < 0.1 | 0.025 | < 0.1 | 0.112 | 0.1 to 0.999 | 0.1 to 0.999 | 0.775 | 1.28 | 1 to 44 | 0.029 | < 0.1
6 | CC[C@H]1CC[C@@H](c2ncc(-c3ccc4c(c3)COc3cc5c(ccc6nc([C@@H]7CC[C@H](C)N7C(=O)[C@@H](NC(=O)OC)[C@@H](C)OC)[nH]c65)cc3-4)[nH]2)N1C(=O)[C@H](C)NC(=O)OC [GP] | 0.027 | 0.018 | < 0.1 | 0.027 | < 0.1 | 1.07 | 1 to 44 | 1 to 44 | 2.33 | 0.571 | 0.1 to 0.999 | 0.031 | < 0.1
7 | CC[C@H](C)[C@H](NC(=O)OC)C(=O)N1C[C@@H](C)C[C@H]1c1nc2ccc3cc4c(cc3c2[nH]1)OCc1cc(-c2cnc([C@@H]3CC[C@H](C)N3C(=O)[C@@H](NC(=O)OC)C(C)C)[nH]2)ccc1-4 [GR] | 0.022 | 0.016 | < 0.1 | 0.025 | < 0.1 | 0.198 | 0.1 to 0.999 | 0.1 to 0.999 | 0.794 | 0.159 | 0.1 to 0.999 | 0.025 | < 0.1
8 | CC[C@H]1CC[C@@H](c2nc3ccc4cc5c(cc4c3[nH]2)OCc2cc(-c3cnc([C@@H]4CC[C@H](C)N4C(=O)[C@@H](NC(=O)OC)C(C)C)[nH]3)ccc2-5)N1C(=O)[C@@H](NC(=O)OC)[C@@H](C)O [GS] | 0.021 | 0.018 | < 0.1 | 0.017 | < 0.1 | 0.116 | 0.1 to 0.999 | 0.1 to 0.999 | 0.372 | 0.271 | 0.1 to 0.999 | 0.017 | < 0.1
9 | CC[C@H]1C[C@@H](c2nc3ccc4cc5c(cc4c3[nH]2)OCc2cc(-c3cnc([C@@H]4CC[C@H](C)N4C(=O)[C@@H](NC(=O)OC)C(C)C)[nH]3)ccc2-5)N(C(=O)[C@@H](NC(=O)OC)C(C)C)C1 [GT] | 0.021 | 0.017 | < 0.1 | 0.028 | < 0.1 | 0.257 | 0.1 to 0.999 | 1 to 44 | 1.73 | 0.187 | 0.1 to 0.999 | 0.031 | < 0.1
10 | CC[C@H]1C[C@@H](c2nc3ccc4cc5c(cc4c3[nH]2)OCc2cc(-c3cnc([C@@H]4CC[C@H](C)N4C(=O)[C@@H](NC(=O)OC)C(C)C)[nH]3)ccc2-5)N(C(=O)[C@@H](NC(=O)OC)[C@@H](C)OC)C1 [GU] | 0.022 | 0.014 | < 0.1 | 0.014 | < 0.1 | 0.075 | < 0.1 | 0.1 to 0.999 | 0.728 | 0.152 | 0.1 to 0.999 | 0.026 | < 0.1
11 | CC[C@H]1C[C@@H](c2ncc(-c3ccc4c(c3)COc3cc5c(ccc6nc([C@@H]7CC[C@H](C)N7C(=O)[C@@H](NC(=O)OC)C(C)C)[nH]c65)cc3-4)[nH]2)N(C(=O)[C@@H](NC(=O)OC)C(C)C)C1 [GW] | 0.015 | 0.017 | < 0.1 | 0.018 | < 0.1 | 0.771 | 0.1 to 0.999 | 1 to 44 | 2.41 | 0.127 | 0.1 to 0.999 | 0.01 | < 0.1
12 | CC[C@H]1C[C@@H](c2ncc(-c3ccc4c(c3)COc3cc5c(ccc6nc([C@@H]7CC[C@H](C)N7C(=O)[C@@H](NC(=O)OC)C(C)C)[nH]c65)cc3-4)[nH]2)N(C(=O)[C@@H](NC(=O)OC)[C@@H](C)OC)C1 [GX] | 0.016 | 0.016 | < 0.1 | 0.013 | < 0.1 | 0.135 | 0.1 to 0.999 | 1 to 44 | 1.18 | 0.106 | 0.1 to 0.999 | 0.01 | < 0.1
13 | COC(=O)N[C@H](C(=O)N1[C@@H](C)CC[C@H]1c1nc2ccc3cc4c(cc3c2[nH]1)OCc1cc(-c2cnc([C@@H]3CC[C@H](C)N3C(=O)[C@@H](NC(=O)OC)[C@@H](C)O)[nH]2)ccc1-4)C(C)C [GY] | 0.032 | 0.023 | < 0.1 | 0.013 | < 0.1 | 0.06 | < 0.1 | 0.1 to 0.999 | 0.311 | 0.048 | < 0.1 | 0.015 | < 0.1
